Tests used:
[1] = tested on: EV71 strain BrCr; test: Cytopathic effect (CPE) reduction antiviral assay against EV71 in RD cells (MTS/PMS readout); format: cell-based, human enterovirus 71; settings: for EC50: Enterovirus A, EV71 BrCr in RD cells, inhibition of virus-induced cell death, MTS/PMS, at least three independent dose-response curves; for SI (Selectivity Index): SI = CC50/EC50; for SI (Selectivity Index) / increase of SI relative to BAPR: EV71 BrCr, RD cells
Protocol: (§1) (Table 2). As previously mentioned, modifications of the N^6-substituent (linker) of the BAPR scaffold led to a remarkable increase of selectivity. Here, we produced a series of BAPR analogues to evaluate the effect of the fluorination of BAPR on the replication of EV71. A cytopathic effect (CPE) reduction assay was performed with the newly synthetized analogues (compounds 5–11) in rhabdomyosarcoma (RD) cells. BAPR, N^6-isopenthenyladenosine, and N^6-furfuryladenosine were included in the screening, and the toxicity of all of the aforementioned compounds was evaluated in parallel on treated-uninfected cells.
An EV71 BrCr laboratory-adapted strain was used at a low multiplicity of infection (MOI) in a standardized antiviral assay. Briefly, freshly harvested rhadbdosarcoma (RD) cells were seeded in a 96-well plate (2 × 10^4 cells/well) and incubated at 37 °C in 5% CO2. The next day, a serial dilution of the compounds was prepared in assay medium and added to the RD cells. Then, the cells were supplemented with the viral suspension. […] Subsequently, the antiviral effect was quantified using a colorimetric readout with 3-(4,5-dimethylthiazol-2-yl)-5-(3-carboxymethoxyphenyl)-2-(4-sulfophenyl)-2H-tetrazolium/phenazine methosulfate (MTS/PMS method), and the concentration of compound at which a 50% inhibition of virus-induced cell death would be observed (EC50) was calculated from the antiviral dose-response curves. A similar assay setup was used to determine the adverse effect of the compound on uninfected, treated cells for the calculation of the CC50 (concentration of compound that reduces overall cell health with 50% as determined by the MTS/PMS method). […]

[2] = Toxicity on treated, uninfected RD cells (MTS/PMS readout); format: cell-based; settings: human, uninfected rhabdomyosarcoma (RD) cells, uninfected, treated RD cells; MTS/PMS; at least three independent dose-response curves
Protocol: as §1
(§2) An EV71 BrCr laboratory-adapted strain was used at a low multiplicity of infection (MOI) in a standardized antiviral assay. Briefly, freshly harvested rhadbdosarcoma (RD) cells were seeded in a 96-well plate (2 × 10^4 cells/well) and incubated at 37 °C in 5% CO2. The next day, a serial dilution of the compounds was prepared in assay medium and added to the RD cells. Then, the cells were supplemented with the viral suspension. […] Subsequently, the antiviral effect was quantified using a colorimetric readout with 3-(4,5-dimethylthiazol-2-yl)-5-(3-carboxymethoxyphenyl)-2-(4-sulfophenyl)-2H-tetrazolium/phenazine methosulfate (MTS/PMS method), and the concentration of compound at which a 50% inhibition of virus-induced cell death would be observed (EC50) was calculated from the antiviral dose-response curves. A similar assay setup was used to determine the adverse effect of the compound on uninfected, treated cells for the calculation of the CC50 (concentration of compound that reduces overall cell health with 50% as determined by the MTS/PMS method). The selectivity index (SI) was calculated as a ratio of […].

[3] = tested on: rhabdomyosarcoma (RD) cells; test: as above; format: cell-based; settings: for cytotoxicity (in words): uninfected RD cells, highest concentration tested
Protocol: as §1, §2

OC[C@H]1O[C@@H](n2cnc3c(NCc4ccccc4)ncnc32)[C@H](O)[C@@H]1O [Compound 1, N^6-benzyladenosine]
EC50 [1]: 280 ± 50 nM
SI (Selectivity Index) [1]: 15
CC50 [2]: 4.3 ± 1.6 µM

CC(C)=CCNc1ncnc2c1ncn2[C@@H]1O[C@H](CO)[C@@H](O)[C@H]1O [Compound 2, N^6-isopenthenyladenosine, reference compound]
EC50 [1]: 1000 ± 200 nM
SI (Selectivity Index) [1]: 6.0
CC50 [2]: 6 ± 0.6 µM

OC[C@H]1O[C@@H](n2cnc3c(NCc4ccco4)ncnc32)[C@H](O)[C@@H]1O [Compound 3, N^6-furfuryladenosine, reference compound]
EC50 [1]: 1400 ± 300 nM
SI (Selectivity Index) [1]: 5.6
CC50 [2]: 7.8 ± 3.4 µM

OC[C@H]1O[C@@H](n2cnc3c(NCc4ccccc4F)ncnc32)[C@H](O)[C@@H]1O [Compound 5, N^6-(2-fluorobenzyl) adenosine]
EC50 [1]: 300 ± 50 nM
SI (Selectivity Index) [1]: 44
CC50 [2]: 13.3 ± 3.7 µM

OC[C@H]1O[C@@H](n2cnc3c(NCc4cccc(F)c4)ncnc32)[C@H](O)[C@@H]1O [Compound 6, N^6-(3-fluorobenzyl) adenosine]
EC50 [1]: 240 ± 90 nM
SI (Selectivity Index) [1]: 26
CC50 [2]: 6.2 ± 1.8 µM

OC[C@H]1O[C@@H](n2cnc3c(NCc4ccc(F)cc4)ncnc32)[C@H](O)[C@@H]1O [Compound 7, N^6-(4-fluorobenzyl) adenosine]
increase of SI relative to BAPR ([1]; relative to BAPR): 1.25 times
EC50 [1]: 140 ± 50 nM
SI (Selectivity Index) [1]: 19
CC50 [2]: 2.7 ± 0.9 µM

OC[C@H]1O[C@@H](n2cnc3c(NCc4c(F)cccc4F)ncnc32)[C@H](O)[C@@H]1O [Compound 8, N^6-(2,6-difluorobenzyl) adenosine]
EC50 [1]: 210 ± 10 nM
SI (Selectivity Index) [1]: >1210
CC50 ([3]; uninfected, treated RD cells, MTS/PMS, at least three independent dose-response curves): > 254 µM
CC50 [2]: > 250 µM

OC[C@H]1O[C@@H](n2cnc3c(NCc4ccccc4C(F)(F)F)ncnc32)[C@H](O)[C@@H]1O [Compound 9, N^6-(2-trifluoromethylbenzyl) adenosine]
EC50 [1]: 1000 ± 100 nM
SI (Selectivity Index) [1]: >235
cytotoxicity (in words) [3]: did not show any cytotoxicity
CC50 [2]: > 235 µM

OC[C@H]1O[C@@H](n2cnc3c(NCc4cccc(C(F)(F)F)c4)ncnc32)[C@H](O)[C@@H]1O [Compound 10, N^6-(3-trifluoromethylbenzyl) adenosine]
increase of SI relative to BAPR ([1]; relative to BAPR): 230 times
improvement (gain) in potency as compared to BAPR ([1]; EV71 replication in RD cells, relative to BAPR): four-fold
EC50 [1]: 68 ± 1 nM
SI (Selectivity Index) [1]: >3456
cytotoxicity (in words) [3]: did not show any cytotoxicity
CC50 [2]: > 235 µM

OC[C@H]1O[C@@H](n2cnc3c(NCc4ccc(C(F)(F)F)cc4)ncnc32)[C@H](O)[C@@H]1O [Compound 11, N^6-(4-trifluoromethylbenzyl) adenosine]
EC50 [1]: 1000 ± 100 nM
SI (Selectivity Index) [1]: >235
cytotoxicity (in words) [3]: did not show any cytotoxicity
CC50 [2]: > 235 µM

— PMC6152005, “Fluorination of Naturally Occurring N^6-Benzyladenosine Remarkably Increased Its Antiviral Activity and Selectivity” (Molecules : A Journal of Synthetic Chemistry and Natural …, 2017)
